The record followed here is patent US20090176773A1, “Non-Peptidic Inhibitors of AKAP/PKA Interaction” (FORSCHUNGSVERBUND BERLIN E.V., priority 2005, published 2009).

SMILES strings stand for the structures. Like-named read-outs stand apart in the source and are kept apart here.

The target in the assay is AKAP18delta-RIIalpha interaction (GST-AKAP18delta binding to plate-bound PKA-RIIalpha) (Rattus norvegicus, UniProt P12368+Q6JP77). The assay is described as follows: ELISA for quantitative detection of protein-protein binding between PKA-RIIalpha and GST-AKAP18delta (library screening, validation, IC50). From the text: ELISA is a method wherein an antigen is detected with a specific antibody. Detection proceeds via an enzyme linked covalently with one of the binding partners, which enzyme catalyzes chromogen conversion.
Because one of the two binding partners is immobilized, removal of unbound antibodies or antigens is very easy. Detection proceeds via observing the intensity (I) of chemiluminescence using a photomultiplier in a special reading device (ELISA reader). The output of the measured values is in relative light units (RLU).
In the present case, the point was to investigate whether binding of one protein (PKA) to another (AKAP18delta-GST) would be inhibited by the presence of small organic molecules. A sandwich ELISA was therefore developed wherein the RIIalpha PKA subunit, to which AKAP proteins bind, was bound on 384-well microtiter plates (MTP).
The white color improves detection by reflection of the chemiluminescence being formed and simultaneously prevents illumination of neighboring wells. Free binding sites were blocked after binding (see below), and the second GST-AKAP18delta protein was added to […]. Subsequently, bound GST-AKAP18delta was quantified via antibodies and chemiluminescence. The principle of ELISA is illustrated in FIG. 4.
PBS (phosphate-buffered saline, pH 7.4) was used as buffer system to maintain a physiological pH value for the proteins used. The buffer was added with a mix of protease inhibitors and PMSF as non-specific protease inhibitor to delay protein degradation. In addition, DTT was employed to protect the proteins from oxidation.
The blocking solution additionally included 0.3% skim milk powder to saturate MTP non-specific binding sites with milk proteins included therein.
To adapt the binding curves to the measured values (see results), the one-site binding model was used as a basis, which model applies to binding of GST-AKAP18delta to RIIalpha. The corresponding formula is
The measured values for IC50 calculation were adapted to the one-site competition model. It was established that the bottom asymptote should be greater than 0.0 to rule out faulty adaptations with negative binding values. The formula used is
The FMP20000 substance library was used for screening, i.e., systematic, partially automated search for potential inhibitors of AKAP18delta-RIIalpha binding. […] The substances of the library had been selected according to specific criteria which also apply to previously known pharmacological active substances. Said criteria also include Lipinski's Rule (cf. discussion). To prepare an MTP for screening, each of 380 wells was filled with 20 μl of RIIalpha solution with a concentration of 0.75 ng/μl (in binding buffer), using an electronically controlled 24-channel pipette (Eppendorf). […] Following centrifugation of the MTPs (1 min at 2500×g), the MTPs were incubated at room temperature for at least 1 h. After removing the protein solution by tapping on a paper stack, non-specific binding sites were blocked with 100 μl of blocking solution/well for at least 1 h at room temperature.
After completion of the washing operation, solution residues possibly still present were tapped off on a paper stack.
In the next step, the MTPs were prepared for automated pipetting of the low-molecular weight substances. Each well was supplied with 10 μl of blocking solution or controls pipetted in accordance with the pipetting scheme (Table 1.2). […] The plates were briefly centrifuged.
Each of the control columns 1 and 24 received 0.5 μl of DMSO, so that the controls were added with the same amount of DMSO as the other samples.
Following centrifugation of the screening MTPs, AKAP18delta-GST (8 ng/μl in blocking solution) was added in accordance with the pipetting scheme (Table 2.2), centrifuged, and incubated for at least 30 min at room temperature.
In general terms: In an ELISA, binding on a coated surface is turned into a signal by an enzyme label.

Chain of AKAP18delta-RIIalpha interaction (GST-AKAP18delta binding to plate-bound PKA-RIIalpha) (P12368 2-401): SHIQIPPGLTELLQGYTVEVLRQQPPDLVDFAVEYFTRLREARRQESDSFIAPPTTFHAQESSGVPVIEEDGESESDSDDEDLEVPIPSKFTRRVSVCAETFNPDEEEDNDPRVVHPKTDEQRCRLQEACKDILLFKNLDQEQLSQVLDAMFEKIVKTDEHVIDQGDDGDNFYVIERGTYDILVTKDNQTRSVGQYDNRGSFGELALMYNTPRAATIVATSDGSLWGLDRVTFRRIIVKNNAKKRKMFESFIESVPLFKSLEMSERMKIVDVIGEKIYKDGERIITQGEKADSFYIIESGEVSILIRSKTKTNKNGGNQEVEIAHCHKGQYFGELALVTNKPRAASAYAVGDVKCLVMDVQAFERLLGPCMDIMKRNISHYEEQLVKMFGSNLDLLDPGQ
Chain of AKAP18delta-RIIalpha interaction (GST-AKAP18delta binding to plate-bound PKA-RIIalpha) (Q6JP77 whole entry): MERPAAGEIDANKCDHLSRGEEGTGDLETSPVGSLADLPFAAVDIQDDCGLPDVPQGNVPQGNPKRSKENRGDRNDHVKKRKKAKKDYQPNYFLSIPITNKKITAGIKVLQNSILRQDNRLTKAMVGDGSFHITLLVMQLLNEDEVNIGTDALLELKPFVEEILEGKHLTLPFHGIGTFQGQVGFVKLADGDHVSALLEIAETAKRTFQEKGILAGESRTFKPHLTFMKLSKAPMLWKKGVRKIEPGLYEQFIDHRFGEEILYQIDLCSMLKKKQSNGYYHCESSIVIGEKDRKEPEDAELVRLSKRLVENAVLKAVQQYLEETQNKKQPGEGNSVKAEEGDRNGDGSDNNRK

With `C/N=C(/NCCCc1ccccc1)SCc1cccc2ccccc12` [SM67], the “Ratio IC50 (comp./990) in Screening no. 2” value is 0.51 and the “Ratio IC50 (comp./990) in Screening no. 3” value came out at 1.10.

For `CC(C)(C)/N=C(\NCc1cccc2ccccc12)SCc1cccc2ccccc12` [JG27], the “Ratio IC50 (comp./990) in Screening no. 3” value is listed as 1.03.

For the compound `N=C(N)NCc1cccc2ccccc12` [SM51], the “Ratio IC50 (comp./990) in Screening no. 2” value was 88.35.

Turning to `N=C(NN)SCc1cccc2ccccc12` [SM55], the “Ratio IC50 (comp./990) in Screening no. 2” value worked out at 2.45.

Take `CC(C)(C)/N=C(\NCc1ccccc1)SCc1cccc2ccccc12` [JG20]: the “Ratio IC50 (comp./990) in Screening no. 3” value is 0.74.

Turning to `COc1ccc(CSC(=N)N)cc1Br` [Compound 2348], for the setting “validation, FIG. 15, 50 nM GST-AKAP18delta”, the “Concentration dependence of the inhibitory effect in validation (dilution series)” value is given as “non-active”.

Turning to `c1ccc2c(CN/C(=N\C3CCCCC3)SCc3cccc4ccccc34)cccc2c1` [JG25], the “Ratio IC50 (comp./990) in Screening no. 3” value came to 0.26.

In the case of `CCNC(=S)NCc1cccc2ccccc12` [SM58], the “Ratio IC50 (comp./990) in Screening no. 2” value (Table C, screening no. 2, relative to substance 990) was 986.12.

In the case of `C/N=C(/NCCCc1ccccc1)SCc1ccc2ccccc2c1` [SM68], the “Ratio IC50 (comp./990) in Screening no. 2” value is listed as 86.51.

For the compound `c1ccc(C/N=C(\NCc2cccc3ccccc23)SCc2cccc3ccccc23)cc1` [JG28], the “Ratio IC50 (comp./990) in Screening no. 3” value came out at 0.39.

`CC(C)/N=C(\NCc1cccc2ccccc12)SCc1cccc2ccccc12` [JG26]: the “Ratio IC50 (comp./990) in Screening no. 3” value stood at 0.87.

As for `N=C(NCc1ccccc1)SCc1cccc2ccccc12` [SM53], the “Ratio IC50 (comp./990) in Screening no. 2” value is 3.20 and the “Ratio IC50 (comp./990) in Screening no. 3” value turned out to be 1.13.

With `CCNC(=N)SCc1cccc2ccccc12` [SM54], the “Ratio IC50 (comp./990) in Screening no. 2” value is given as 6.43.

Turning to `C/N=C(/NCc1ccccc1)SCc1ccc2ccccc2c1` [SM72], the “Ratio IC50 (comp./990) in Screening no. 2” value was 55.39.

Regarding `C/N=C(/NC1=NCCS1)SCc1ccc2ccccc2c1` [SM66], the “Ratio IC50 (comp./990) in Screening no. 2” value is given as 30.29.

For `CN/C(=N\c1cccc2cc3ccccc3cc12)SCc1cccc2ccccc12` [JG31], the “Ratio IC50 (comp./990) in Screening no. 3” value came to 8.29.

On to `c1ccc2c(C/N=C(\NC3CCCCC3)SCc3cccc4ccccc34)cccc2c1` [SM63], for which the “Ratio IC50 (comp./990) in Screening no. 2” value came to 0.55 and the “Ratio IC50 (comp./990) in Screening no. 3” value was 1.13.

As to `C/N=C(/NC(C)c1ccccc1)SCc1ccc2ccccc2c1` (stereo not drawn) [SM70], the “Ratio IC50 (comp./990) in Screening no. 2” value was determined as 79.84.

On to `CC(C)(C)/N=C(\NC1=NCCS1)SCc1cccc2ccccc12` [JG21], for which the “Ratio IC50 (comp./990) in Screening no. 3” value was 1.97.

As for `S=C(NCCN1CCCCC1)NCc1cccc2ccccc12` [SM56], the “Ratio IC50 (comp./990) in Screening no. 2” value came to 592.04.

As for `C/N=C(\NCc1cccc2ccccc12)SCc1cccc2ccccc12` [JG23], under “Table C, screening no. 3”, the “IC50 in Screening no. 3” value is on record as “bad”.

Take `S=C(NCCN1CCCCC1)Nc1cccc2ccccc12` [SM52]: the “Ratio IC50 (comp./990) in Screening no. 2” value is given as 962.65.

As to `CNC(=S)NCc1cccc2ccccc12` [SM57], the “Ratio IC50 (comp./990) in Screening no. 2” value worked out at 4.16.

On to `C/N=C(/NCc1ccccc1)SCc1cccc2ccccc12` [SM71], for which the “Ratio IC50 (comp./990) in Screening no. 2” value is 0.41 and the “Ratio IC50 (comp./990) in Screening no. 3” value came to 0.45.

Consider `S=C(NCc1cccc2ccccc12)NC1CCCCC1` [SM59], for which the “Ratio IC50 (comp./990) in Screening no. 2” value stood at 343.88.

For `C/N=C(/NC)SCc1cccc2ccccc12` [SM25], the “Ratio IC50 (comp./990) in Screening no. 1” value turned out to be 0.97, the “Ratio IC50 (comp./990) in Screening no. 2” value is recorded as 1.55 and the “Ratio IC50 (comp./990) in Screening no. 3” value is given as 0.68.

For `C/N=C(/NC(C)c1ccccc1)SCc1cccc2ccccc12` (stereo not drawn) [SM69], the “Ratio IC50 (comp./990) in Screening no. 2” value stood at 1.76.
